Results on twelve compounds are retold here after patent US12247032B2, “Substituted pyrazolo[1,5-a]pyrimidines as inhibitors of JAK kinases” (Genentech, Inc., priority 2019, dated 2025).

The structures appear in SMILES notation.

For assay [1], the system named is JAK1 (IL-13-stimulated STAT6 phosphorylation in BEAS-2B cells). In words: P-STAT6 BEAS-2B+IL-13 cell assay. Type of assay: cell-based, human. Particulars: Homo sapiens, BEAS-2B, 1 h, 1 hour compound, IL-13 15 minutes, IC50 by four-parameter fit, read-out: Cellular JAK1 PSTAT6 BEAS2B + IL13. The gist of the method:
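BEAS-2B human bronchial epithelial cells preincubated 1 h at 37 °C with compound, then stimulated with human recombinant IL-13 for 15 min. Phospho-STAT6 (Tyr641) in lysates measured by MSD electrochemiluminescence immunoassay; IC50 from a four-parameter logistic fit of percent of control.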

Assay [2] relates to JAK1 pathway (P-STAT6 in TF-1 human erythroleukemia cells + IL-13). Briefly: P-STAT6 TF-1+Interleukin-13 (IL-13) assay. The format is cell-based. Particulars: Homo sapiens, TF-1, 0.5 h, TF-1 cells, 30 minutes compound, IL-13 10 minutes; IC50 by four-parameter fit; read-out: Cellular PSTAT6 TF-1 + IL13. As to the method:
(§1) TF-1 human erythroleukemia cells (ATCC®; Manassas, VA; Catalog No. CRL-2003™) were grown in Roswell Park Memorial Institute (RPMI) medium supplemented with 10% heat-inactivated fetal bovine serum (FBS), 2 ng/mL granulocyte-macrophage colony-stimulating factor, 1× non-essential amino acids (NEAA), and 1 mM sodium pyruvate. The day before the assay, the cultures were transferred to Opti-MEM™, 1×NEAA, 1 mM sodium pyruvate, and 0.5% charcoal-stripped FBS (starve medium). Inhibitor stock solutions (5 mM in DMSO) were serially diluted 1:2 in DMSO to generate a 10-point concentration titration (at 500× test concentration), which was further diluted by a 50-fold dilution in Assay Medium (RPMI containing 1×NEAA and 1 mM sodium pyruvate) to generate a 10× concentration titration (in 2% DMSO). The cells (300,000 cells/well in 35 μL of Assay Medium) were seeded in 384-well Greiner plates. Diluted inhibitor at 10× concentration (5 μL) was added to the cells and the plates were incubated for 30 minutes at 37° C. in a humidified incubator. Cells were stimulated with the human recombinant cytokine at the respective EC90 concentrations, as previously determined for each individual lot. For the phosphorylated signal transducer and activator of transcription 6 (P-STAT6) TF-1+Interleukin-13 (IL-13) assay, 10 μL of 250 ng/mL IL-13 (R&D Systems; Minneapolis, MN) was added to the cells, which were then incubated for 10 minutes at 37° C. For the P-STAT5 TF-1+Erythropoietin (EPO) assay, 10 μL of 110 IU/mL EPO (Gibco Life Technologies, Catalog No. PHC2054) was added to the cells, which were then incubated for 30 min at 37° C. For both assays, the incubation was followed by addition to the cells of 5 μL of ice-cold 10× cell lysis buffer (Cell Signaling Technologies; Danvers, MA; Catalog No. 9803S) containing 1 mM phenylmethylsulfonyl fluoride (PMSF). Assay plates were frozen at −80° C. for a minimum of 1 hour. In the IL-13 assay, P-STAT6 was measured by coating goat anti-rabbit (GAR) plates (Meso Scale Discovery [MSD]; Rockville, MD; Catalog No. MSD L21RA-1) with rabbit anti-human total STAT6 antibody (Cell Signaling Technologies; Catalog No. 9362S), incubating the cell lysates in the coated plates overnight at 4° C., and then detecting with mouse anti-P-STAT6 (Tyr641) Clone 16E12 antibody (MilliporeSigma; Burlington, MA; Catalog No. 05-590, custom labeled by MSD with SULFO-tag) using standard MSD plate processing, washing, and detection protocols. In the EPO assay, P-STAT5 was detected using the phospho-STAT5a,b Whole Cell Lysate Kit (MSD; Catalog No. K150IGD-1). The electrochemiluminescence (ECL) signal of wells was read on the MESO SECTOR S600 (MSD) reader.
(§2) Data analysis was performed by subtracting the negative control (cytokine stimulated and 20 μM control inhibitor-treated cells) mean ECL value from the ECL value of all wells, determining percent of control for test compound well ECL values relative to the positive control (cytokine stimulated and DMSO-treated cells) mean ECL value, and determining the IC50 for test compounds with a four-parameter logistic fit model as shown in Equation 4.

Assay [3] relates to JAK2 pathway (P-STAT5 in TF-1 human erythroleukemia cells + EPO). In words: P-STAT5 TF-1+Erythropoietin (EPO) assay. Type of assay: cell-based. Particulars: Homo sapiens, TF-1, 0.5 h, TF-1 cells, 30 minutes compound, EPO 30 min; IC50 by four-parameter fit; read-out: Cellular (JAK2 PSTAT5 TF1 + EPO). As to the method:
as §1, §2

In the case of `CNCCn1nnc(Cn2cc(NC(=O)c3cnn4cccnc34)c(-c3cc(OC(F)F)ccc3OC(F)F)n2)n1` [Example 20, N-[3-[2,5-bis(difluoromethoxy)phenyl]-1-[[2-[2-(methylamino)ethyl]tetrazol-5-yl]methyl]pyrazol-4-yl]pyrazolo[1,5-a]pyrimidine-3-carboxamide], the results for the IC50 in assay [1], in assay [2] and in assay [3] were 30 nM, 45 nM and 15 nM, respectively.

In the case of `CN(C)CCN1CC(n2nnc(Cn3cc(NC(=O)c4cnn5cccnc45)c(-c4cc(OC(F)F)ccc4OC(F)F)n3)n2)C1` [Example 21, N-[3-[2,5-bis(difluoromethoxy)phenyl]-1-[[2-[1-[2-(dimethylamino)ethyl]azetidin-3-yl]tetrazol-5-yl]methyl]pyrazol-4-yl]pyrazolo[1,5-a]pyrimidine-3-carboxamide], the IC50 in assay [1] is 15 nM; in assay [2], 40 nM; in assay [3], 32 nM.

Turning to `CN1CCC(n2nnc(Cn3cc(NC(=O)c4cnn5cccnc45)c(-c4cc(OC(F)F)ccc4OC(F)F)n3)n2)CC1` [Example 22], the results for the IC50 in assay [1], in assay [2] and in assay [3] were 19 nM, 4.8 nM and 18 nM, respectively.

Consider `CN1CC(n2nnc(Cn3cc(NC(=O)c4cnn5cccnc45)c(-c4cc(C5CC5)ccc4OC(F)F)n3)n2)C1` [Example 23, N-[3-[5-cyclopropyl-2-(difluoromethoxy)phenyl]-1-[[2-(1-methylazetidin-3-yl)tetrazol-5-yl]methyl]pyrazol-4-yl]pyrazolo[1,5-a]pyrimidine-3-carboxamide], for which the IC50 in assay [1] was determined as 17 nM; in assay [2], 7.4 nM; in assay [3] it was 8.2 nM.

Consider `CN1CCC(n2nnnc2Cn2cc(NC(=O)c3cnn4cccnc34)c(-c3cc(OC(F)F)ccc3OC(F)F)n2)C1` (stereo not drawn) [Example 26, N-[3-[2,5-bis(difluoromethoxy)phenyl]-1-[[1-(1-methylpyrrolidin-3-yl)tetrazol-5-yl]methyl]pyrazol-4-yl]pyrazolo[1,5-a]pyrimidine-3-carboxamide], for which the IC50 worked out at 16 nM in assay [1], 11 nM in assay [2] and 18 nM in assay [3].

For `CN(CCN1CC(n2nnc(Cn3cc(NC(=O)c4cnn5cccnc45)c(-c4cc(OC(F)F)ccc4OC(F)F)n3)n2)C1)C(=O)OC(C)(C)C` [Example 31, tert-butyl N-[2-[3-[5-[[3-[2,5-bis(difluoromethoxy)phenyl]-4-(pyrazolo[1,5-a]pyrimidine-3-carbonylamino)pyrazol-1-yl]methyl]tetrazol-2-yl]azetidin-1-yl]ethyl]-N-methyl-carbamate], the IC50 in assay [1] is 22 nM; in assay [2], 13 nM; in assay [3], 8.6 nM.

For the compound `CN(C)CCN1CC(n2nnc(Cn3cc(NC(=O)c4cnn5cccnc45)c(-c4cc(Cl)ccc4OC(F)F)n3)n2)C1` [Example 37, N-[3-[5-chloro-2-(difluoromethoxy)phenyl]-1-[[2-[1-[2-(dimethylamino)ethyl]azetidin-3-yl]tetrazol-5-yl]methyl]pyrazol-4-yl]pyrazolo[1,5-a]pyrimidine-3-carboxamide], the values for the IC50 in assay [1], in assay [2] and in assay [3] were 16 nM, 6.9 nM and 16 nM, respectively.

With `CN1CCC(N2CC(n3nnc(Cn4cc(NC(=O)c5cnn6cccnc56)c(-c5cc(OC(F)F)ccc5OC(F)F)n4)n3)C2)CC1` [Example 38, N-[3-[2,5-bis(difluoromethoxy)phenyl]-1-[[2-[1-(1-methyl-4-piperidyl)azetidin-3-yl]tetrazol-5-yl]methyl]pyrazol-4-yl]pyrazolo[1,5-a]pyrimidine-3-carboxamide], the IC50 was found to be 18 nM in assay [1], 21 nM in assay [2] and 42 nM in assay [3].

`CSc1ccc(OC(F)F)c(-c2nn(Cc3nnn(C4CN(CCCN(C)C)C4)n3)cc2NC(=O)c2cnn3cccnc23)c1` [Example 58, N-[3-[2-(difluoromethoxy)-5-methylsulfanyl-phenyl]-1-[[2-[1-[3-(dimethylamino)propyl]azetidin-3-yl]tetrazol-5-yl]methyl]pyrazol-4-yl]pyrazolo[1,5-a]pyrimidine-3-carboxamide]: the IC50 in assay [1] was 57 nM; in assay [2], 51 nM; in assay [3], 24 nM.

As to `CN(C)CCN1CCC(n2nnc(Cn3cc(NC(=O)c4cnn5cccnc45)c(-c4cc(OC(F)F)ccc4OC(F)F)n3)n2)CC1` [Example 61, N-[3-[2,5-bis(difluoromethoxy)phenyl]-1-[[2-[1-[2-(dimethylamino)ethyl]-4-piperidyl]tetrazol-5-yl]methyl]pyrazol-4-yl]pyrazolo[1,5-a]pyrimidine-3-carboxamide], the IC50 is 32 nM in assay [1], 33 nM in assay [2] and 36 nM in assay [3].

Take `CN(C)[C@H]1C[C@H](N2CC(n3nnc(Cn4cc(NC(=O)c5cnn6cccnc56)c(-c5cc(OC(F)F)ccc5OC(F)F)n4)n3)C2)C1` [Example 70, N-[3-[2,5-bis(difluoromethoxy)phenyl]-1-[[2-[1-[3-(dimethylamino)cyclobutyl]azetidin-3-yl]tetrazol-5-yl]methyl]pyrazol-4-yl]pyrazolo[1,5-a]pyrimidine-3-carboxamide]: the IC50 in assay [1] is 27 nM; in assay [2], 30 nM; in assay [3], 12 nM.

Take `CN1CC(N2CC(n3nnc(Cn4cc(NC(=O)c5cnn6cccnc56)c(-c5cc(OC(F)F)ccc5OC(F)F)n4)n3)C2)C1` [Example 78, N-[3-[2,5-bis(difluoromethoxy)phenyl]-1-[[2-[1-(1-methylazetidin-3-yl)azetidin-3-yl]tetrazol-5-yl]methyl]pyrazol-4-yl]pyrazolo[1,5-a]pyrimidine-3-carboxamide; formic acid]: the IC50 in assay [1] worked out at 40 nM; in assay [2], 62 nM; in assay [3], 47 nM.
